Test results as given in patent US5665861A, “Cardiodilatin fragment, process for preparing same and use thereof” (HaemoPep Pharma GmbH, priority 1987, dated 1997).

Tested on: membrane preparation from dog kidney cortex
Assay: Inactivation by membrane preparation from dog kidney cortex
Type: in vitro ADME
Text: A unique proteolytic product separated by HPLC on a reverse phase column appears as a single peak which elutes prior to the intact peptide.

In the case of `CC[C@H](C)[C@@H]1NC(=O)[C@H](CCCNC(=N)N)NC(=O)[C@H](CC(=O)O)NC(=O)[C@H](CCSC)NC(=O)[C@H](CCCNC(=N)N)NC(=O)CNC(=O)CNC(=O)[C@H](Cc2ccccc2)NC(=O)[C@@H](NC(=O)[C@H](CO)NC(=O)[C@H](CO)NC(=O)[C@H](CCCNC(=N)N)NC(=O)[C@H](CCCNC(=N)N)NC(=O)[C@H](CC(C)C)NC(=O)[C@@H](N)CO)CSSC[C@@H](C(=O)N[C@@H](CC(N)=O)C(=O)N[C@@H](CO)C(=O)N[C@@H](Cc2ccccc2)C(=O)N[C@@H](CCCNC(=N)N)C(=O)N[C@@H](Cc2ccc(O)cc2)C(=O)O)NC(=O)CNC(=O)[C@H](CC(C)C)NC(=O)CNC(=O)[C@H](CO)NC(=O)[C@H](CCC(N)=O)NC(=O)[C@H](C)NC(=O)CNC1=O` [ANF-(99-126)], the “position of the inactivating cleavage of the ring structure” value is reported as “between Cys-105 and Phe-106”.
